Starred links: 1 amine or outer side, 2 acyl side, 3 side chain; linkers in the order of their positions; H or OH if unused. Positions of bridges follow the written chain, without caps; N, C: chain ends. Non-standard residues stand in square brackets, D forms with d. Residues, ends and D or L forms follow the SMILES beside them. Chains are numbered I, II in the order given. Actinocin(9to1) = Cc1c2oc3c(C)ccc(C(=O)[*:1])c3nc-2c(C(=O)[*:2])c(N)c1=O; NMeV = CN[C@H](C(=O)O)C(C)C; Sar = CNCC(=O)O
Assays:
NCI-N87 cells = assay: Synergistic apoptosis with chemotherapeutic, NCI-N87; format: cell-based, human; set-up: effect on viability of NCI-N87 cells: dose or concentration left out as unconfirmed
Source text: FIG. […]
(§1) In the following, the Her-2 positive tumor cells were all obtained from the Cell Bank of the Chinese Academy of Sciences. […] Cell viability was detected by MTT assay.

SKOV-3 cells = assay: Synergistic apoptosis with chemotherapeutic, SKOV-3; format: cell-based, human; settings: 15 nM actinomycin D alone
Method: (§2) FIG. 9A: Her-2 positive human tumor cells (NCI-N87, SKBR-3 and SKOV-3) were cultured in the presence of the fusion protein, actinomycin D or both for 1 day; and cell viability was detected using a CCK-8 kit.
as §1

SKBR-3 cells = assay: Synergistic apoptosis with chemotherapeutic, SKBR-3; format: cell-based, human; settings: 15 nM actinomycin D alone
Method: as §2, §1

BT-474 cells = assay: Synergistic apoptosis with chemotherapeutic, BT-474; format: cell-based, human; settings: 33 μM or 11 μM doxorubicin alone
[1] = test system: Her-2 positive human gastric cancer cells NCI-N87; assay: Cytotoxicity of Her-2 antibody-TNFα fusion protein on NCI-N87 cells; format: cell-based; settings: at concentrations corresponding to the fusion protein below 20 ng/ml
Method: FIG. 7A: the NCI-N87 cells were incubated with the antibody-TNFα fusion protein at different concentrations for 1 day; and cell survival was detected using a CCK-8 kit.
The day before experiment, the cells ([…]) in growth medium (150 μl) were added onto a 96-well plate. […] Cell viability was detected using MTT assay and cell viability using CCK-8.

How did the “apoptosis in NCI-N87 cells” value (NCI-N87 cells; 15 nM actinomycin D alone) turn out when `Cc1c2oc3c(C)ccc(C(=O)N[C@@H]4C(=O)N[C@H](C(C)C)C(=O)N5CCC[C@H]5C(=O)N(C)CC(=O)N(C)[C@@H](C(C)C)C(=O)O[C@@H]4C)c3nc-2c(C(=O)N[C@@H]2C(=O)N[C@H](C(C)C)C(=O)N3CCC[C@H]3C(=O)N(C)CC(=O)N(C)[C@@H](C(C)C)C(=O)O[C@@H]2C)c(N)c1=O` [actinomycin D] (I: T[dV]P[Sar][NMeV] / II: T[dV]P[Sar][NMeV]; ester I:1-I:C, II:1-II:C; linker I:N-II:N via Actinocin(9to1)) was run?
The value was 25%.

And the “impact on survival of SKOV-3 cells” value (SKOV-3 cells)?
Its value is “Neither 100 ng/ml of Trastuzumab-TNFα fusion protein nor 15 nM of actinomycin D, when used alone, had an impact on survival of SKOV-3 cells”.

What about the “apoptosis in SKBR-3 cells” value (SKBR-3 cells) of the same compound?
Its value is 70%.

Which results are given for `COc1cccc2c1C(=O)c1c(O)c3c(c(O)c1C2=O)C[C@@](O)(C(=O)CO)C[C@@H]3O[C@H]1C[C@H](N)[C@H](O)[C@H](C)O1` [doxorubicin]?
effect on viability of NCI-N87 cells (NCI-N87 cells): little effect on viability; effect on viability of BT-474 cells (BT-474 cells): little effect on viability

Which “apoptosis in NCI-N87 cells” value [1] does the source give for TNFα here?
Its value is “induced no or little apoptosis”.

Reference: patent US12344646B2, “Antibody-TNF α fusion protein and its preparation and applications” (priority 2018, dated 2025)
